Where a name gives a salt, the structure may show the parent alone.
How the values were obtained:
[1] = zeta potential of terbinafine hydrochloride solution; assay type: physicochemical; details: 0.02 g/ml solution
Description: Prototype measurements of zeta potential of the 0.02 g/ml terbinafine hydrochloride solution and the result is positive at pH of below 5.11. However, there are other anions in the solution, e.g., chloride ion and hydroxide ion (sodium hydroxide was used to adjust the solution pH) that make negative values of zeta potential. [table]

[2] = 0.5% in methanol/water (4:6), 25 degrees Celsius; cited from earlier work
[3] = theoretical fraction of positively charged terbinafine from pKa; assay type: physicochemical
Description: The positive charge can be determined by examining the pKa of the active ingredient. […] At pH<pKa, the positively charged terbinafine is more than 50%. When pH>pKa the positively charged terbinafine is less than 50%.

SMILES | Zeta Potential ([1]; pH 3.68) | Zeta Potential ([1]; pH 5.11) | Zeta Potential ([1]; pH 7.07 (adjusted with sodium hydroxide)) [mV] | Zeta Potential ([1]; pH 8.73 (adjusted with sodium hydroxide)) [mV] | pH of a solution [2] | positively charged terbinafine ([3]; pH 5.10) | positively charged terbinafine molecules ([3]; pH 7.10) [%] | positively charged terbinafine ([3]; pH 9.10)
CN(C/C=C/C#CC(C)(C)C)Cc1cccc2ccccc12 [Terbinafine hydrochloride] | +12.1 mV | +31.2 mV | −34.0 | −58.8 | approximately 4.7 |  |  | 
CN(C/C=C/C#CC(C)(C)C)Cc1cccc2ccccc12 [Terbinafine] |  |  |  |  |  | about 99% | 50 | about 1%
